Source: patent publication US12187713B2, “Immunomodulators, compositions and methods thereof” (Betta Pharmaceuticals Co., Ltd, priority 2019, dated 2025)

Target: PD-1/PD-L1 (Homo sapiens (Human), UniProt Q9NZQ7)
Assay: PD-1/PD-L1 Binding Assay (Alphascreen)
Procedure, shortened: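 PD-1/PD-L1 binding detected by anti-6×His acceptor and streptavidin donor beads after 120 min in the dark at 25 °C. Beforehand, the two proteins were incubated 15 min at 25 °C with inhibitor at 0.015–300 nM (1% DMSO). IC50 comes from a log concentration–response curve.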

Sequence of PD-1/PD-L1 (Q9NZQ7 19-238): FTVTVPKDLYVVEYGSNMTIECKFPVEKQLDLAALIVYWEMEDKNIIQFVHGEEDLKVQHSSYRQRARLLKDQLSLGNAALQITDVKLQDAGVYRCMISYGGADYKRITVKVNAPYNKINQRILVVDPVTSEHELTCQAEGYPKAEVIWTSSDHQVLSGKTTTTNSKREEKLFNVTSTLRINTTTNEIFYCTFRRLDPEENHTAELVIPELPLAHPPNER

Compound | IC50 (range symbols) [nM] | IC50 (numeric values) [nM]
Cc1c(-c2nc3cc(CN4CC5CNCC5C4)c(OC(F)F)cc3o2)cccc1-c1cccc(-c2nc3cc(CN4CCC[C@H]4C(=O)O)c(OC(F)F)cc3o2)c1C (stereo partly drawn) [Example 50, ((6-(difluoromethoxy)-2-(3′-(6-(difluoromethoxy)-5-((hexahydropyrrolo [3,4-c]pyrrol-2(1H)-yl)methyl)benzo[d]oxazol-2-yl)-2,2′-dimethyl-[1,1′-biphenyl]-3-yl)benzo[d]oxazol-5-yl)methyl)-L-proline] | 0.1 to 5 | –
COc1nc(-c2cccc(-c3cccc(-c4nc5cc(CN6CCC[C@H]6C(=O)O)c(OC(F)F)cc5o4)c3C)c2C)ccc1CN1C2CCC1CC2 [Example 278, ((2-(3′-(5-(((1s,4s)-7-azabicyclo[2.2.1]heptan-7-yl)methyl)-6-methoxypyridin-2-yl)-2,2′-dimethyl-[1,1′-biphenyl]-3-yl)-6-(difluoromethoxy)benzo[d]oxazol-5-yl)methyl)-L-proline] | 0.1 to 5 | –
Cc1c(-c2ccc(CN3CCCC3)nc2)cccc1-c1cccc(-c2nc3cc(CN4CCC[C@H]4C(=O)O)c(OC(F)F)cc3o2)c1C [Example 263, ((6-(difluoromethoxy)-2-(2,2′-dimethyl-3′-(6-(pyrrolidin-1-ylmethyl)pyridin-3-yl)-[1,1′-biphenyl]-3-yl)benzo[d]oxazol-5-yl)methyl)-L-proline] | – | 0.98
Cc1c(-c2nc3cc(CN(C)C)c(OCc4ccc(S(C)(=O)=O)cc4)cc3o2)cccc1-c1cccc(-c2nc3cc(CN4CCC[C@H]4C(=O)O)c(OC(F)F)cc3o2)c1C [Example 126, ((6-(difluoromethoxy)-2-(3′-(5-((dimethylamino)methyl)-6-((4-(methylsulfonyl)benzyl)oxy)benzo[d]oxazol-2-yl)-2,2′-dimethyl-[1,1′-biphenyl]-3-yl)benzo[d]oxazol-5-yl)methyl)-L-proline] | 0.1 to 5 | –
Cc1c(-c2nc3cc(CN4CCC[C@H]4C(=O)O)c(OC(F)F)cc3o2)cccc1-c1cccc(-c2nc3cc(CN4CCCCC4CCO)cc(C#N)c3o2)c1C (stereo partly drawn) [Example 135, ((2-(3′-(7-cyano-5-((2-(2-hydroxyethyl)piperidin-1-yl)methyl)benzo[d]oxazol-2-yl)-2,2′-dimethyl-[1,1′-biphenyl]-3-yl)-6-(difluoromethoxy)benzo[d]oxazol-5-yl)methyl)-L-proline] | 0.1 to 5 | –
Cc1c(-c2nc3cc(CN4CCC[C@H]4C(=O)O)c(OC(F)F)cc3o2)cccc1-c1cccc(-c2ccc(CN3CCCC3)cc2F)c1Br [Example 221, ((2-(2′-bromo-2″-fluoro-2-methyl-4″- (pyrrolidin-1-ylmethyl)-[1,1′:3′,1″-terphenyl]-3-yl)-6-(difluoromethoxy)benzo[d]oxazol-5-yl)methyl)proline] | 0.1 to 5 | –
Cc1c(-c2ccc3c(c2)CN(C(C)C(=O)O)C3)cccc1-c1cccc(-c2nc3cc(CN4CCC[C@H]4C(=O)O)c(OC(F)F)cc3o2)c1C (stereo partly drawn) [Example 292, ((2-(3′-(2-(1-carboxyethyl)isoindolin-5-yl)-2,2′-dimethyl-[1,1′-biphenyl]-3-yl)-6-(difluoromethoxy)benzo[d]oxazol-5-yl)methyl)-L-proline] | 5 to 50 | –
Cc1c(-c2ccc(CN3CCCC3)c(OCC3CC3)c2)cccc1-c1cccc(-c2nc3cc(CN4CCC[C@H]4C(=O)O)c(OC(F)F)cc3o2)c1C [Example 250, ((2-(3″-(cyclopropylmethoxy)-2,2′-dimethyl-4″- (pyrrolidin-1-ylmethyl)-[1,1′:3′,1″-terphenyl]-3-yl)-6-(difluoromethoxy)benzo[d]oxazol-5-yl)methyl)proline] | 0.1 to 5 | –
Cc1c(-c2nc3cc(CN4CC[C@@H](C(=O)O)C4)c(OC(F)F)cc3o2)cccc1-c1cccc(-c2nc3cc(CN4CCC(C)C4)cc(C(F)(F)F)c3o2)c1C (stereo partly drawn) [Example 91, (3R)-1-((6-(difluoromethoxy)-2-(2,2′-dimethyl-3′-(5-((3-methylpyrrolidin-1-yl)methyl)-7-(trifluoromethyl)benzo [d]oxazol-2-yl)-[1,1′-biphenyl]-3-yl)benzo[d]oxazol-5-yl)methyl)pyrrolidine-3-carboxylic acid] | 0.1 to 5 | –
Cc1c(-c2nc3cc(CN4CC5COCC5C4)c(OC(F)F)cc3o2)cccc1-c1cccc(-c2nc3cc(CN4CCC[C@H]4C(=O)O)c(OC(F)F)cc3o2)c1C (stereo partly drawn) [Example 55, ((6-(difluoromethoxy)-2-(3′-(6-(difluoromethoxy)-5-((tetrahydro-1H-furo[3,4-c]pyrrol-5(3H)-yl)methyl)benzo[d]oxazol-2-yl)-2,2′-dimethyl-[1,1′-biphenyl]-3-yl)benzo[d]oxazol-5-yl)methyl)-L-proline] | – | 0.57

Results, then the molecule that gave them:

IC50 (range symbols) [nM] | IC50 (numeric values) [nM] | Compound
– | 1.6 | Cc1c(-c2nc3ccc(CN4CC(C)(C)C4)cc3o2)cccc1-c1cccc(-c2nc3cc(CN4CCC[C@H]4C(=O)O)c(OC(F)F)cc3o2)c1C [Example 109, ((6-(difluoromethoxy)-2-(3′-(6-((3,3-dimethylazetidin-1-yl)methyl)benzo[d]oxazol-2-yl)-2,2′-dimethyl-[1,1′-biphenyl]-3-yl)benzo[d]oxazol-5-yl)methyl)-L-proline]
0.1 to 5 | – | Cc1c(-c2nc3cc(CN4CC5(CCC5)C4)c(OC(F)F)cc3o2)cccc1-c1cccc(-c2nc3cc(CN4CCC[C@H]4C(=O)O)c(OC(F)F)cc3o2)c1C [Example 48, ((2-(3′-(5-((2-azaspiro [3.3]heptan-2-yl)methyl)-6-(difluoromethoxy)benzo[d]oxazol-2-yl)-2,2′-dimethyl-[1,1′-biphenyl]-3-yl)-6-(difluoromethoxy)benzo[d]oxazol-5-yl)methyl)-L-proline]
0.1 to 5 | – | Cc1c(-c2nc3cc(CN4CCC[C@H]4C(=O)O)c(OC(F)F)cc3o2)cccc1-c1cccc(-c2nc3cc(CN4CC(CO)C4)cc(C#N)c3o2)c1C [Example 137, ((2-(3′-(7-cyano-5-((3-(hydroxymethyl)azetidin-1-yl)methyl)benzo[d]oxazol-2-yl)-2,2′-dimethyl-[1,1′-biphenyl]-3-yl)-6-(difluoromethoxy)benzo[d]oxazol-5-yl)methyl)-L-proline]
0.1 to 5 | – | CCNCc1cc2nc(-c3cccc(-c4cccc(-c5nc6cc(CN7CCC[C@H]7C(=O)O)c(OC(F)F)cc6o5)c4C)c3C)oc2cc1Cl [Example 97, ((2-(3′-(6-chloro-5-((ethylamino)methyl)benzo[d]oxazol-2-yl)-2,2′-dimethyl-[1,1′-biphenyl]-3-yl)-6-(difluoromethoxy)benzo[d]oxazol-5-yl)methyl)-L-proline]
0.1 to 5 | – | Cc1c(-c2nc3cc(CN4CCC[C@H]4C(=O)O)c(OC(F)F)cc3o2)cccc1-c1cccc(-c2nc3cc(CN4CCC5(C4)CC5(F)F)cc(C#N)c3o2)c1C (stereo partly drawn) [Example 153, ((2-(3′-(7-cyano-5-((1,1-difluoro-5-azaspiro[2.4]heptan-5-yl)methyl)benzo [d]oxazol-2-yl)-2,2′-dimethyl-[1,1′-biphenyl]-3-yl)-6-(difluoromethoxy)benzo[d]oxazol-5-yl)methyl)-L-proline]
– | 1.2 | Cc1c(-c2nc3cc(CN4CCC(C)(CO)C4)c(OC(F)F)cc3o2)cccc1-c1cccc(-c2nc3cc(CN4CCC[C@H]4C(=O)O)c(OC(F)F)cc3o2)c1C (stereo partly drawn) [Example 77, ((6-(difluoromethoxy)-2-(3′-(6-(difluoromethoxy)-5-((3-(hydroxymethyl)-3-methylpyrrolidin-1-yl)methyl)benzo[d]oxazol-2-yl)-2,2′-dimethyl-[1,1′-biphenyl]-3-yl)benzo[d]oxazol-5-yl)methyl)-L-proline]
